This is an account of results in patent publication US11364282B2, “Compositions, uses and methods for treatment of infertility and subfertility” (LO.LI. PHARMA S.R.L., priority 2017, dated 2022).

SMILES strings stand for the structures.

The test system of data set [1] is anovulatory PCOS patients. In words: Clinical evaluation on PCOS women: ovulation assessed by ultrasound examination. Type of data set: in vivo, human. Conditions: two sachets per day. An excerpt: The present study aims to develop an efficacious therapy in women suffering from PCOS based on the improved absorption of inositol, e.g. myoinositol, when administered in combination with alpha lactalbumin. Specifically, while treatment of PCOS with myoinositol alone correlates to an improvement in the disease in a significant number of women, there remain women who still fail to respond to treatment with myoinositol alone. The present inventors thus sought to determine whether the higher level of myoinositol absorption observed when administering myoinositol together with alpha lactalbumin might allow successful treatment of PCOS patients who had previously not responded to treatment with myoinositol alone. If so, then the treatment of PCOS with inositol in combination with alpha lactalbumin, e.g. myoinositol in combination with alpha lactalbumin, would represent a significant therapeutic advance, allowing treatment of PCOS in previously recalcitrant cases, thereby substantially extending the therapeutic benefit of inositol, e.g. myoinositol, in treating PCOS.
The present study included 20 anovulatory PCOS patients.
Inclusion criteria were: age 20-35 years; PCOS according to Rotterdam ESHRE-ASRM consensus workshop group; anovulation and infertility >1 year. Indeed, according to Rotterdam criteria, PCOS was diagnosed performed if 2 out of the 3 following factors were fulfilled: a) oligo- or anovulation, b) clinical and/or biochemical signs of hyperandrogenism, and c) polycystic ovaries.
Patients were excluded in the event of other conditions causing ovulatory dysfunction, such as hyperprolactinemia or hypothyroidism, or androgen excess, such as adrenal hyperplasia or Cushing's syndrome, and also in the case of intake of other drugs that can potentially influence ovulation.
All the patients were given myoinositol (Inofolic®, Lo.Li. Pharma, Rome, Italy), containing 2 g myoinositol and 0.2 mg folic acid in dose of two sachets per day before meals, in order to induce ovulation.
Ovulation was assessed using ultrasound examination on days 12, 14 and 20 of the cycle. Treatment was performed for three months.
These 7 non-responders then became the subject of a second phase of the study, in which they received treatment with myoinositol in combination with alpha lactalbumin.
(§1) Specifically, myoinositol plasma levels were tested in these non-responding patients; a mean value of 17±3.5 μmol/l myoinositol was observed. Successively, a treatment with 2 g myoinositol, 0.2 mg folic acid and 50 mg alpha lactalbumin was performed in doses of two powder sachets per day before meals during the next three months. Of the 7 myoinositol resistant patients after combined treatment with myoinositol and alpha lactalbumin, 5 of the original non-responders (i.e. 71% of the original non-responders) ovulated. […]

A further data set in a line: clinical. Conditions: female, human, in vivo. The procedure: as §1
The nature of data set [2]: Pharmacokinetic evaluation in healthy subjects: myoinositol plus alpha lactalbumin (plasma myoinositol by GCMS). Conditions: both sexes, human, single oral dose in powder, 6 g myoinositol alone or plus 150 mg alpha lactalbumin, 15 healthy volunteers, mean. In kind it is in vivo. An excerpt:
The present example describes a pharmacokinetic study combining the oral administration of myoinositol and alpha lactalbumin in healthy subjects. The study aims to determine whether the combination of myoinositol and alpha lactalbumin is able to increase the plasma level of myoinositol above that observed after administering myoinositol alone. The study involved 15 healthy volunteers, 6 men and 9 women. […] Subjects received orally 6 g of myoinositol in powder form and then, after a washout period of 7 days, 6 g of myoinositol and 150 mg alpha lactalbumin, also in powder form.

Another data set deals with anovulatory PCOS women. Conditions: 4 g/day myoinositol; cited from earlier work.
For data set [3], the system named is women affected by idiopathic infertility. In words: Clinical evaluation on women affected by idiopathic infertility: biochemical pregnancy (beta hCG assay). The conditions noted are these: first phase: 40 women; 2 g myoinositol + 0.2 mg folic acid (Inofolic), two sachets per day, 3 months. Type of data set: in vivo, human. An excerpt:
The present study aims to develop an efficacious therapy in women suffering from idiopathic infertility based on the improved absorption of inositol, e.g. myoinositol, when administered in combination with alpha lactalbumin. Specifically, while treatment of idiopathic infertility with myoinositol alone correlates to an improvement in the disease in a significant number of women, there remain women who still fail to respond to treatment with myoinositol alone. The present inventors thus sought to determine whether the higher level of myoinositol absorption observed when administering myoinositol together with alpha lactalbumin might allow successful treatment of idiopathic infertility patients who had previously not responded to treatment with myoinositol alone. If so, then the treatment of idiopathic infertility with inositol in combination with alpha lactalbumin, e.g. myoinositol in combination with alpha lactalbumin, would represent a significant therapeutic advance, allowing treatment of idiopathic infertility in previously recalcitrant cases, thereby substantially extending the therapeutic benefit of inositol, e.g. myoinositol, in treating idiopathic infertility. The present study included 40 women affected by idiopathic infertility. Inclusion criteria were: women affected by idiopathic infertility as defined below, aged 30-40 years, who were not receiving any therapy with drugs which potentially influence ovulation. Patients were given a thorough evaluation and were tested for a number of diseases, as described in the following. Testing positive for any of these diseases tested sufficed to exclude a patient as being “idiopathically infertile”. Specifically, patients were excluded from this trial in the event they were diagnosed positive for any of: hyperprolactinemia, hypothyroidism, Cushing's syndrome, adrenal hyperplasia, obesity, polycystic ovary syndrome (PCOS) or anovulation. The person skilled in the art can routinely diagnose each of the above mentioned conditions. For example, hyperprolactinemia can be diagnosed when serum prolactin levels are found to be over 20 μg/L, as e.g. described in Serri et al., CMAJ, 2003, 169(6): 575-581. Hypothyroidism can be diagnosed when the serum TSH level is found to be over 4.5 mIU/L (Garber et al., CLINICAL PRACTICE GUIDELINES FOR HYPOTHYROIDISM IN ADULTS: COSPONSORED BY THE AMERICAN ASSOCIATION OF CLINICAL ENDOCRINOLOGISTS AND THE AMERICAN THYROID ASSOCIATION; Endocrine Practice vol. 18 No. 6, 2012). Cushing's syndrome can be diagnosed according to Nieman et al., J. Clin. Endocrinol. […] The primary readout was the achievement of biochemical pregnancy as assessed using an assay (HCG Combo Card, Shanghai Chemtron Biotech Co., Ltd., catalog.no. 6011C31-4) for beta human chorionic gonadotropin (beta hCG). […]

[4] abbreviates: first phase: 20 anovulatory PCOS patients, 2 g myoinositol + 0.2 mg folic acid (Inofolic), three months.

What is called Cmax is the peak of the concentration-time curve. As a reminder, the Tmax is the time from dosing to the highest level.

As for `O[C@H]1[C@H](O)[C@@H](O)[C@H](O)[C@@H](O)[C@H]1O` [myoinositol], the “OVULATION T3 (number of patients)” value in data set [1] (7 PCOS patients non-responsive to myoinositol, after 3 months of the treatment, combination: 2 g myoinositol, 0.2 mg folic acid, 50 mg alpha lactalbumin) was determined as 0. Moreover, in data set [1] (setting [4]), the “women resistant, did not ovulate (%)” value stood at 35%; the “women resistant, did not ovulate (number of 20)” value was 7; the “women who ovulated (%)” value was determined as 65%; the “women who ovulated (number of 20)” value is listed as 13. Also, in the data set “clinical”, the concentration at 3 months was 17 ± 3.5 µM and the “myoinositol plasma level in patients who responded positively” value came to 38 µmol/L. Besides, the “MYOINOSITOL PLASMA LEVELS T3 mean (±SD)” value in the data set “clinical” (3 months) is 17 (3.5) μmol/l. Also, in data set [2], the Cmax was determined as 98 µM and the Tmax was 3 h. Also, the “non-responders (patients who did not ovulate after treatment)” value in the data set on anovulatory PCOS women was 38.3%. In data set [3], the “Achieving biochemical pregnancy %” value was 52.5%, the “Achieving biochemical pregnancy (number)” value is listed as 21, the “Not achieving biochemical pregnancy %” value was 47.5% and the “Not achieving biochemical pregnancy (number)” value is recorded as 19.
